Measured values reported in patent publication US9359196B2, “Antiproliferative compositions comprising curcumin analogs and methods of producing and using same” (The Board of Regents of the University of Oklahoma, priority 2009, dated 2016).

Tests used:
[1] = Phase solubility analysis with HPβCD; assay type: physicochemical
Description: CLEFMA was synthesized and characterized according to the methods described in Example 1. A phase solubility analysis of CLEFMA was performed according to the published method [Higuchi et al., 1965], and ICs of CLEFMA with HPβCD in the solution phase were prepared as reported previously [Agashe et al., 2010]. Briefly, an excess of CLEFMA was added to 5 ml of HPβCD solution (1 g/ml). The mixture was continuously agitated on a shaker incubator at 25° C. for 72 h. After allowing settling of coarse particulate matter for 6 h, the supernatant was centrifuged at 14,000 rpm for 15 min to obtain a clear supernatant free of any insoluble material. The solution was passed through a sterile 0.22 μm cellulose acetate filter, and the amount of HPβCD-solubilized CLEFMA was estimated spectrophotometrically at 320 nm. The phase solubility diagram was constructed by plotting the estimated CLEFMA concentration against HPβCD concentrations. The stability constant was calculated from the phase diagram using the following equation— K1:1=Slope/[S0(1−Slope)], where S0 is CLEFMA solubility in the absence of HPβCD
The complexation efficiency (CE) was calculated as a product of S0 and K1:1

[2] = tested on: PC-3 (prostate cancer) cells; assay: Cell proliferation study in PC-3 cells; assay type: cell-based
Description: (§1) Cell Culture and drug treatment: Human lung adenocarcinoma cell line NCI-H441 (ATCC Number: HTB-174) was obtained from the American Type Culture Collection (Manassas, Va.). H441 cells were maintained at 37° C. with 5% CO2 in McCoy's 5A Medium (Invitrogen, Carlsbad, Calif.) supplemented with 5% heat-inactivated fetal bovine serum (FBS). All media contained gentamicin at 50 μg/ml (GIBCO Laboratories, Grand Island, N.Y.). Other cells lines (PANC-1, MiaPaCa-2 and PC-3) were also similarly maintained, except that the cell culture medium was RPMI 1640 instead of McCoy's.
(§2) To evaluate the anti-proliferative activity of synthesized bis(2-fluorobenzylidene)-4-piperidone and its derivatives, the cells were seeded in 96-well flat-bottom tissue culture plates at a density of 10×10^3 cells per well. The cells were allowed to attach and grow overnight. The test compounds were solubilized in dimethyl sulfoxide (DMSO), filtered through 0.2 μm nylon filter and added to cells at 1, 10, 25 and 100 μM concentrations in culture medium supplemented with 5% FBS. […]
(§3) Cell Proliferation: The total number of cells after the treatment period was estimated by the hexosaminidase assay. […] The absorbance was measured at 405 nm. […] The data were analyzed as percent of control, where the control wells were treated with equivalent amounts of DMSO alone, and the analyzed data was presented as average±standard error of mean. […]

[3] = tested on: MiaPaCa-2 (pancreatic cancer) cells; assay: Cell proliferation study in MiaPaCa-2 cells; assay type: cell-based
Description: as §1, §2, §3

[4] = Histopathology of liver, lung and kidney; assay type: in vivo; conditions: rats treated with CLEFMA liposomes
From the text: After the animals were euthanized, a part of the liver, lung and kidney were fixed in 10% formalin. The formalin-preserved tissues were used for histology by staining 5 μm sections of paraffin-embedded tissues with H&E stain. The sections were read by a veterinary pathologist (OUHSC, Oklahoma City) in a blinded fashion for the presence of necrosis, hemorrhage, inflammation or any other pathological changes.

[5] = tested on: CCL-151 normal lung fibroblasts; assay: Reactive oxygen species assay (DCFH-DA) in CCL-151 normal lung fibroblasts; assay type: cell-based
Description: (§4) Reactive oxygen species (ROS) assay: The CLEFMA-induced generation of ROS in H441 and CCL-151 cells was measured using the OxiSelect assay kit (Cell Biolabs, Inc., San Diego, Calif.). Briefly, the cells were cultured in 96-well plates, and the cell-permeable fluorogenic probe 2′,7′-dichlorodihydrofluorescin diacetate (DCFH-DA) was added to the wells and the plate was incubated for 30-60 min. The wells were washed thrice with PBS and treated with CLEFMA in culture medium for 24 and 48 h. After the incubation period, the medium was removed and the cells were gently washed 2-3 times with PBS, and the fluorescence, indicating ROS activity, was measured at 480 nm/530 nm (excitation/emission wavelengths) using the Cytoflour 2300 (Millipore, Billerica, Mass.).

H441 cells = assay: Reactive oxygen species assay (DCFH-DA) in H441 cells; assay type: cell-based, human; conditions: 24 and 48 h
Description: as §4

[6] = tested on: Human lung adenocarcinoma cell line NCI-H441; assay: In vitro anti-proliferative activity in H441 cells (hexosaminidase), Example 2; assay type: cell-based
Description: (§5) Human lung adenocarcinoma cell line NCI-H441 (ATCC # HTB-174) and normal lung fibroblasts LL-24 (ATCC #CCL-151) were obtained from American Type Culture Collection (Manassas, Va.). The cells were maintained at 37° C. with 5% CO2 in RPMI 1640 medium (Invitrogen, Carlsbad, Calif.). The medium was supplemented with 10% heat-inactivated fetal bovine serum and 50 μg/ml of gentamicin (GIBCO Laboratories, Grand Island, N.Y.). For cell proliferation assay, the cells were seeded in 96-well flat-bottom tissue culture plates at a density of 0.5−1×10^4 cells per well. The cells were allowed to adhere and grow overnight, followed by treatment with CLEFMA or CLEFMA-liposomes. The concentration of CLEFMA was maintained in the range of 0.1-25 μM in 100 μl of RPMI 1640 medium. For comparison, the cells were also treated with 1 and 10 μM natural curcumin and EF24. EF24 is a potent synthetic curcuminoid and a close analog of CLEFMA [Adams et al., 2004]. All solutions of plain drugs were made in dimethylsulfoxide (DMSO). The concentration of DMSO in the treatment medium was maintained at 0.1%. The control wells received equivalent amounts of DMSO or phospholipid-matched control liposomes. Inhibition of cell proliferation was determined by measuring a decrease in hexosaminidase activity as described by Landegren [Landegren, 1984]. Para-nitrophenol-N-acetyl-beta-D-glucosaminide (60 μl per well) was used as the substrate for the hexosaminidase enzyme. The results of hexosaminidase assay were also confirmed by visualization of cultured cells under a microscope.

[7] = tested on: normal lung fibroblasts LL-24; assay: In vitro anti-proliferative activity in normal lung fibroblasts LL-24; assay type: cell-based; conditions: LL-24, identical treatment conditions (10 μM, 24 h)
Description: as §5, with “Para-nitrophenol-N-acetyl-beta-D-glucosaminide (60 μl per well) was used as the substrate for the hexosaminidase enzyme. The results of hexosaminidase assay were also confirmed by visualization of cultured cells under a microscope.” left out

SMILES: O=C(O)C=CC(=O)N1CC(=Cc2ccccc2Cl)C(=O)C(=Cc2ccccc2Cl)C1 [Compound 29, 4-[3,5-Bis-(2-chlorobenzylidene)-4-oxo-piperidin-1-yl]-4-oxo-2-butenoic acid]
- stability constant of the complex with HPβCD ([1]; 25° C.): 0.0126 M⁻¹
- complexation efficiency ([1]; product of S0 and K1:1): approximately 0.57
- potency of antiproliferative action [2]: enhanced the potency of antiproliferative action
- potency of antiproliferative action [3]: enhanced the potency of antiproliferative action
- histopathological toxicity in liver, lung and kidney [4]: no toxicities in these tissues
- ROS production [5]: did not increase ROS production in normal lung fibroblasts
- ROS generation (H441 cells): generated ROS in a dose- and time-dependent fashion
- anti-proliferative activity in H441 cells [6]: more potent than curcumin and another synthetic curcuminoid EF24
- H441 cells surviving ([6]; 24 h treatment with 10 μM): Less than 40%
- effect on normal lung fibroblasts [7]: essentially remained unscathed
